Measured values taken from ChEMBL document CHEMBL1201862, “PubChem BioAssay data set” (2004).
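Briefly, cells in 96-well plates were exposed to five compound concentrations for 48 h, and endpoints were estimated by linear interpolation. Here, GI50 denotes the concentration required for 50% inhibition of growth.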 The source made the active and inactive calls. Rule as the data show it: active = GI50 up to about 1.1 µM and inactive = higher.

Legend:
Test in all cases: inhibition of tumour cell growth, NCI panel, 48 h
SK-MEL-5 = tested on: SK-MEL-5
HL-60 = tested on: HL-60
T47D = tested on: T47D
KM12 = tested on: KM12
SK-MEL-2 = tested on: SK-MEL-2
HOP-92 = tested on: HOP-92
OVCAR-8 = tested on: OVCAR-8
786-0 = tested on: 786-0
EKVX = tested on: EKVX
HT-29 = tested on: HT-29
NCI-H522 = tested on: NCI-H522
U-251 = tested on: U-251
HOP-62 = tested on: HOP-62
CCRF-CEM = tested on: CCRF-CEM
NCI/ADR-RES = tested on: NCI/ADR-RES
ACHN = tested on: ACHN
COLO 205 = tested on: COLO 205
Malme-3M = tested on: Malme-3M
IGROV-1 = tested on: IGROV-1
SNB-75 = tested on: SNB-75

Structure (SMILES) | GI50 (SK-MEL-5) | GI50 (HL-60) | GI50 (T47D) | GI50 (KM12) | GI50 (SK-MEL-2) | GI50 (HOP-92) | GI50 (OVCAR-8) | GI50 (786-0) | GI50 (EKVX) | GI50 (HT-29) | GI50 (NCI-H522) | GI50 (U-251) | GI50 (HOP-62) | GI50 (CCRF-CEM) | GI50 (NCI/ADR-RES) | GI50 (ACHN) | GI50 (COLO 205) | GI50 (Malme-3M) | GI50 (IGROV-1) | GI50 (SNB-75)
CC(=O)Oc1cc2c(cc1OCC(F)(F)F)[C@H]1CC[C@]3(C)[C@@H](OC(C)=O)CC[C@H]3[C@@H]1CC2=O | 17 µM (inactive) | 13.9 µM (inactive) | 23.3 µM (inactive) | 27.7 µM (inactive) | 16.9 µM (inactive) | 13.2 µM (inactive) | 20.9 µM (inactive) | 26.4 µM (inactive) | 22.8 µM (inactive) | 23.9 µM (inactive) | 20 µM (inactive) | 16.4 µM (inactive) | 25.1 µM (inactive) | 15.3 µM (inactive) | 15.3 µM (inactive) | 18.9 µM (inactive) | 30.8 µM (inactive) | 16.8 µM (inactive) | 18.7 µM (inactive) | 16 µM (inactive)
COc1cc(C(SCc2ccccc2)SCc2ccccc2)ccc1O | > 10 µM (inactive) | > 10 µM (inactive) | 8.97 µM (inactive) | > 10 µM (inactive) | > 10 µM (inactive) | > 10 µM (inactive) | > 10 µM (inactive) | > 10 µM (inactive) | > 10 µM (inactive) | > 10 µM (inactive) | > 10 µM (inactive) | > 10 µM (inactive) | > 10 µM (inactive) | > 10 µM (inactive) | > 10 µM (inactive) | > 10 µM (inactive) | > 10 µM (inactive) | > 10 µM (inactive) | > 10 µM (inactive) | > 10 µM (inactive)
CCCCCCCCCCN(CCCCCCCCCC)C(=O)COc1c2cc(C(C)(C)C)cc1Cc1cc(C(C)(C)C)cc(c1OCC(=O)N(CCCCCCCCCC)CCCCCCCCCC)Cc1cc(C(C)(C)C)cc(c1OCC(=O)N(CCCCCCCCCC)CCCCCCCCCC)Cc1cc(C(C)(C)C)cc(c1OCC(=O)N(CCCCCCCCCC)CCCCCCCCCC)C2 | 13.5 µM (inactive) | 15 µM (inactive) | 16.1 µM (inactive) | 11.5 µM (inactive) | 7.93 µM (inactive) | < 0.01 µM (active) | 4.16 µM (inactive) | 11.2 µM (inactive) | 12.1 µM (inactive) | 2.34 µM (inactive) | 3.18 µM (inactive) | 11.2 µM (inactive) | 16.1 µM (inactive) | 4.66 µM (inactive) | 14.8 µM (inactive) | 14.9 µM (inactive) | 15.8 µM (inactive) | 15 µM (inactive) | 12.4 µM (inactive) | 18.2 µM (inactive)
Clc1ccc(C(OCn2ccnc2)c2nc3ccccc3[nH]2)c(Cl)c1 (stereo not given) | 16.2 µM (inactive) | 22.1 µM (inactive) | 39.1 µM (inactive) | > 100 µM (inactive) | 42.7 µM (inactive) | 0.312 µM (active) | 52.8 µM (inactive) | 39 µM (inactive) | 66.2 µM (inactive) | 53.3 µM (inactive) | 43.1 µM (inactive) | 31.4 µM (inactive) | 92.9 µM (inactive) | 38.6 µM (inactive) | 56.2 µM (inactive) | 26.4 µM (inactive) | 34 µM (inactive) | 88.9 µM (inactive) | 43.3 µM (inactive) | 28.9 µM (inactive)
O=C1CC(c2cccc([N+](=O)[O-])c2)C2(C(=O)NC(=S)NC2=O)C(c2cccc([N+](=O)[O-])c2)C1 (stereo not given) | 82.2 µM (inactive) | 40.3 µM (inactive) | 81.3 µM (inactive) | 26.6 µM (inactive) | 35.9 µM (inactive) | 28.2 µM (inactive) | 21.2 µM (inactive) | 34.8 µM (inactive) | 20.4 µM (inactive) | 40.9 µM (inactive) | 30 µM (inactive) | 26.2 µM (inactive) | 30.3 µM (inactive) | 27.6 µM (inactive) | > 100 µM (inactive) | 72.1 µM (inactive) | 24.4 µM (inactive) | 11.6 µM (inactive) | 31.3 µM (inactive) | 43.4 µM (inactive)
O=C1c2ccccc2C(=O)c2c(NCC3CO3)cccc21 (stereo not given) | 22.6 µM (inactive) | 5.27 µM (inactive) | > 100 µM (inactive) | 18.6 µM (inactive) | 17.2 µM (inactive) | 94.4 µM (inactive) | 7.19 µM (inactive) | 12.2 µM (inactive) | 17.5 µM (inactive) | 18.2 µM (inactive) | 23.2 µM (inactive) | 14 µM (inactive) | > 46.1 µM (inactive) | 1.43 µM (inactive) | 9.91 µM (inactive) | 8.67 µM (inactive) | > 53.1 µM (inactive) | > 80.5 µM (inactive) | 17.4 µM (inactive) | > 100 µM (inactive)
CC1(C)[C@@H]2CC[C@@]1(C)C1(S[S+]1[O-])C21Cc2ccccc2C1 (stereo not given in full) | > 10 µM (inactive) | 18.1 µM (inactive) | 21.6 µM (inactive) | 56.1 µM (inactive) | 17.2 µM (inactive) | 23.3 µM (inactive) | 17.3 µM (inactive) | 16.4 µM (inactive) | 23.8 µM (inactive) | 17.9 µM (inactive) | 15.8 µM (inactive) | 24.9 µM (inactive) | 81.1 µM (inactive) | 5.25 µM (inactive) | 25.6 µM (inactive) | 20.9 µM (inactive) | 30.6 µM (inactive) | 38.8 µM (inactive) | 17.2 µM (inactive) | 31 µM (inactive)
